In ChEMBL document CHEMBL3868621, “A novel adamantane thiadiazole derivative induces mitochondria-mediated apoptosis in lung carcinoma cell line” (Bioorg Med Chem, 2017):
Calls of active or inactive are those of the source. No cut-off for these calls is given here.

Experiments:
A549 [1] = test: Induction of apoptosis in human A549 cells assessed as viable cells at 0.087 mM after 24 hrs by annexin V/propidium iodide double staining based flow cytometry (reference value: 98.85%); format: functional; conditions: A549, 24 h, read-out: Activity
A549 [2] = test: Induction of apoptosis in human A549 cells after 24 to 48 hrs by annexin V/propidium iodide double staining based flow cytometry; format: functional, cell-based
A549 [3] = test: Induction of morphological changes in human A549 cells assessed as larger uplifted particles on cell surface at 0.087 mM after 24 hrs by atomic force microscopic imaging analysis; format: functional, cell-based
A549 [4] = test: Induction of apoptosis in human A549 cells assessed as early apoptotic cells at 0.17 mM after 48 hrs by annexin V/propidium iodide double staining based flow cytometry (reference value: 1.27%); format: functional
A549 [5] = test: Induction of morphological changes in human A549 cells assessed as cell shrinkage at 0.17 mM after 72 hrs by uranyl acetate/lead citrate staining based transmission electron microscopic imaging analysis; format: functional
A549 [6] = test: Effect on Bcl2 expression in human A549 cells assessed as ratio of Bcl-2 to beta-actin mRNA level at 0.17 mM by qRT-PCR analysis (reference value: 15.0312); format: functional
A549 [7] = test: Induction of apoptosis in human A549 cells assessed as increase in caspase-3 activity at 0.17 mM using Ac-DEVD-pNA as substrate after 48 hrs by colorimetric assay (reference value: 0.005); format: functional
A549 [8] = test: Induction of apoptosis in human A549 cells assessed as late apoptotic cells at 0.17 mM after 48 hrs by annexin V/propidium iodide double staining based flow cytometry (reference value: 0.08%); format: functional
A549 [9] = test: Induction of morphological changes in human A549 cells assessed as large uplifted structures on cell surface by measuring average particle height at 0.087 mM after 24 hrs by atomic force microscopic imaging analysis (reference value: 0.144 micrometer); format: functional
A549 [10] = test: Induction of morphological changes in human A549 cells assessed as nuclear chromatin condensation and margination at 0.17 mM after 72 hrs by uranyl acetate/lead citrate staining based transmission electron microscopic imaging analysis; format: functional, cell-based
A549 [11] = test: Induction of morphological changes in human A549 cells assessed as reduction in nucleus volume at 0.17 mM after 72 hrs by uranyl acetate/lead citrate staining based transmission electron microscopic imaging analysis; format: functional, cell-based
A549 [12] = test: Induction of apoptosis in human A549 cells assessed as early apoptotic cells at 0.087 mM after 24 hrs by annexin V/propidium iodide double staining based flow cytometry (reference value: 0.91%); format: functional
A549 [13] = test: Induction of morphological changes in human A549 cells assessed as increased cellular granularity at 0.17 mM after 72 hrs by uranyl acetate/lead citrate staining based transmission electron microscopic imaging analysis; format: functional, cell-based
A549 [14] = test: Induction of apoptosis in human A549 cells assessed as necrotic cells at 0.17 mM after 48 hrs by annexin V/propidium iodide double staining based flow cytometry (reference value: 0%); format: functional
A549 [15] = test: Induction of morphological changes in human A549 cells assessed as small membrane protrusions on cell surface at 0.087 mM after 24 hrs by atomic force microscopic imaging analysis; format: functional, cell-based
A549 [16] = test: Induction of apoptosis in human A549 cells assessed as late apoptotic cells at 0.087 mM after 24 hrs by annexin V/propidium iodide double staining based flow cytometry (reference value: 0.21%); format: functional
A549 [17] = test: Effect on p53 expression in human A549 cells assessed as ratio of p53 to beta-actin mRNA level at 0.17 mM by qRT-PCR analysis (reference value: 10.87); format: functional
A549 [18] = test: Induction of morphological changes in human A549 cells assessed as large uplifted structures on cell surface by measuring particle width at 0.087 mM after 24 hrs by atomic force microscopic imaging analysis (reference value: 0.147 micrometer); format: functional
A549 [19] = test: Induction of morphological changes in human A549 cells assessed as formation of apoptotic bodies at 0.17 mM after 72 hrs by uranyl acetate/lead citrate staining based transmission electron microscopic imaging analysis; format: functional, cell-based
[20] = Cell cycle arrest in human A549 cells assessed as accumulation at G0/G1 phase at 0.087 mM after 24 hrs by propidium iodide staining based flow cytometry (reference value: 33.96%); format: functional
A549 [21] = test: Effect on Bax expression in human A549 cells assessed as ratio of Bax to beta-actin mRNA level at 0.17 mM by qRT-PCR analysis (reference value: 9.0641); format: functional
A549 [22] = test: Induction of morphological changes in human A549 cells assessed as large uplifted structures on cell surface by measuring particle length at 0.087 mM after 24 hrs by atomic force microscopic imaging analysis (reference value: 0.161 micrometer); format: functional
A549 [23] = test: Induction of morphological changes in human A549 cells assessed as change in mitochondrial morphology at 0.17 mM after 72 hrs by uranyl acetate/lead citrate staining based transmission electron microscopic imaging analysis; format: functional, cell-based
[24] = Cytotoxicity against human A549 cells assessed as decrease in cell viability after 24 hrs by MTT assay; format: functional, cell-based; conditions: A549, 24 h
A549 [25] = test: Induction of apoptosis in human A549 cells assessed as necrotic cells at 0.087 mM after 24 hrs by annexin V/propidium iodide double staining based flow cytometry (reference value: 0.02%); format: functional
A549 [26] = test: Induction of morphological changes in human A549 cells assessed as formation of membrane blebs at 0.17 mM after 72 hrs by uranyl acetate/lead citrate staining based transmission electron microscopic imaging analysis; format: functional, cell-based
[27] = Cytotoxicity against HFB4 cells assessed as decrease in cell viability after 24 hrs by MTT assay; format: toxicity, cell-based; conditions: human
[28] = Cytotoxicity against human HCT116 cells assessed as decrease in cell viability after 24 hrs by MTT assay; format: functional, cell-based; conditions: HCT-116, 24 h
A549 [29] = test: Induction of apoptosis in human A549 cells assessed as viable cells at 0.17 mM after 48 hrs by annexin V/propidium iodide double staining based flow cytometry (reference value: 98.6%); format: functional; conditions: A549, 48 h, read-out: Activity
A549 [30] = test: Effect on caspase-3 expression in human A549 cells assessed as ratio of caspase-3 to beta-actin mRNA level at 0.17 mM by qRT-PCR analysis (reference value: 6.398); format: functional
A549 [31] = test: Induction of morphological changes in human A549 cells assessed as cell surface damage by measuring average roughness value at 0.087 mM after 24 hrs by atomic force microscopic imaging analysis (reference value: 1.11 micrometer); format: functional
[32] = Cell cycle arrest in human A549 cells assessed as accumulation at S phase at 0.087 mM after 24 hrs by propidium iodide staining based flow cytometry (reference value: 34.42%); format: functional
A549 [33] = test: Induction of apoptosis in human A549 cells at 0.087 to 0.17 mM by annexin V/propidium iodide double staining based flow cytometry; format: functional, cell-based; conditions: TDE = time-dependent effect
[34] = Cell cycle arrest in human A549 cells assessed as accumulation at G2/M phase at 0.087 mM after 24 hrs by propidium iodide staining based flow cytometry (reference value: 26.63%); format: functional
[35] = Cytotoxicity against human PC3 cells assessed as decrease in cell viability after 24 hrs by MTT assay; format: functional, cell-based; conditions: PC-3, 24 h
A549 [36] = test: Induction of morphological changes in human A549 cells assessed as change in mitochondrial number at 0.17 mM after 72 hrs by uranyl acetate/lead citrate staining based transmission electron microscopic imaging analysis; format: functional, cell-based

## O=C(Nc1ccccc1)c1nn(-c2ccccc2)/c(=N/NC(=O)C23CC4CC(CC(C4)C2)C3)s1
A549 [1]
  viability at 87 µM: 89%
A549 [2]
  Activity: Dose-dependent effect
A549 [3]
  Activity: Active
A549 [4]
  Activity: 16.2%
A549 [5]
  Activity: Active
A549 [6]
  Ratio: 8.323
A549 [7]
  OD: 0.021
A549 [8]
  Activity: 0.18%
A549 [9]
  Activity: 0.161 um
A549 [10]
  Activity: Active
A549 [11]
  Activity: Active
A549 [12]
  Activity: 10.36%
A549 [13]
  Activity: Active
A549 [14]
  Activity: 0%
A549 [15]
  Activity: Active
A549 [16]
  Activity: 0.61%
A549 [17]
  Ratio: 13.73
A549 [18]
  Activity: 0.134 um
A549 [19]
  Activity: Active
[20]
  Activity: 29.2%
A549 [21]
  Ratio: 18.781
A549 [22]
  Activity: 0.142 um
A549 [23]
  Activity: Active
[24]
  IC50: 87 µM
A549 [25]
  Activity: 0%
A549 [26]
  Activity: Active
[27]
  IC50 at 24 h: 218 µM
[28]
  IC50: 168 µM
A549 [29]
  viability at 170 µM: 83.6%
A549 [30]
  Ratio: 12.327
A549 [31]
  Activity: 1.29 um
[32]
  Activity: 68.9%
A549 [33]
  Activity: Tde
[34]
  Activity: 1.97%
[35]
  IC50: 163 µM
A549 [36]
  Activity: Active

## O=c1[nH]cc(F)c(=O)[nH]1 [FLUOROURACIL]
[24]
  IC50: 2900 µM
[27]
  IC50 at 24 h: > 5000 µM
[28]
  IC50: 2000 µM
[35]
  IC50: 1200 µM
